The kinase profiling compilation of Christmann-Franck et al. (2016)

Assays:
Assay in all cases: KINOMEscan competition binding
Details in all cases: compound 10.0 µM
WEE1 (human) = WEE1 (human) (UniProt P30291)
CDK18 (human) = CDK18 (human) (UniProt Q07002)
[1] = biological target: TYK2 JH1 catalytic (human) (UniProt P29597)
MAP2K2 (human) = MAP2K2 (human) (UniProt P36507)
FGFR2 (human) = FGFR2 (human) (UniProt P21802)
NLK (human) = NLK (human) (UniProt Q9UBE8)
DMPK (human) = DMPK (human) (UniProt Q09013)
MARK4 (human) = MARK4 (human) (UniProt Q96L34)
ACVR1B (human) = ACVR1B (human) (UniProt P36896)
CAMK1D (human) = CAMK1D (human) (UniProt Q8IU85)
FRK (human) = FRK (human) (UniProt P42685)
MAP3K3 (human) = MAP3K3 (human) (UniProt Q99759)
PAK7 (human) = PAK7 (human) (UniProt Q9P286)
SRPK1 (human) = SRPK1 (human) (UniProt Q96SB4)
PRKD3 (human) = PRKD3 (human) (UniProt O94806)
SRPK3 (human) = SRPK3 (human) (UniProt Q9UPE1)
CSNK1G3 (human) = CSNK1G3 (human) (UniProt Q9Y6M4)
STK36 (human) = STK36 (human) (UniProt Q9NRP7)
INSR (human) = INSR (human) (UniProt P06213)
RPS6KA5 KD1 (human) = RPS6KA5 KD1 (human) (UniProt O75582)
MST1R (human) = MST1R (human) (UniProt Q04912)
CSNK1G2 (human) = CSNK1G2 (human) (UniProt P78368)
EPHA1 (human) = EPHA1 (human) (UniProt P21709)
NUAK2 (human) = NUAK2 (human) (UniProt Q9H093)
ROS1 (human) = ROS1 (human) (UniProt P08922)
AKT1 (human) = AKT1 (human) (UniProt P31749)
CDK7 (human) = CDK7 (human) (UniProt P50613)
PAK6 (human) = PAK6 (human) (UniProt Q9NQU5)
CDK11B (human) = CDK11B (human) (UniProt P21127)
PRKAA2 (human) = PRKAA2 (human) (UniProt P54646)
RIOK3 (human) = RIOK3 (human) (UniProt O14730)
PRKACA (human) = PRKACA (human) (UniProt P17612)
MST4 (human) = MST4 (human) (UniProt Q9P289)
MAP4K5 (human) = MAP4K5 (human) (UniProt Q9Y4K4)
EPHB3 (human) = EPHB3 (human) (UniProt P54753)
AURKA (human) = AURKA (human) (UniProt O14965)
[2] = system: KIT (human), P10721 [D816V]
MAPK3 (human) = MAPK3 (human) (UniProt P27361)
MAP2K3 (human) = MAP2K3 (human) (UniProt P46734)

Chain of PRKD3 (human) (O94806 whole entry, looked up): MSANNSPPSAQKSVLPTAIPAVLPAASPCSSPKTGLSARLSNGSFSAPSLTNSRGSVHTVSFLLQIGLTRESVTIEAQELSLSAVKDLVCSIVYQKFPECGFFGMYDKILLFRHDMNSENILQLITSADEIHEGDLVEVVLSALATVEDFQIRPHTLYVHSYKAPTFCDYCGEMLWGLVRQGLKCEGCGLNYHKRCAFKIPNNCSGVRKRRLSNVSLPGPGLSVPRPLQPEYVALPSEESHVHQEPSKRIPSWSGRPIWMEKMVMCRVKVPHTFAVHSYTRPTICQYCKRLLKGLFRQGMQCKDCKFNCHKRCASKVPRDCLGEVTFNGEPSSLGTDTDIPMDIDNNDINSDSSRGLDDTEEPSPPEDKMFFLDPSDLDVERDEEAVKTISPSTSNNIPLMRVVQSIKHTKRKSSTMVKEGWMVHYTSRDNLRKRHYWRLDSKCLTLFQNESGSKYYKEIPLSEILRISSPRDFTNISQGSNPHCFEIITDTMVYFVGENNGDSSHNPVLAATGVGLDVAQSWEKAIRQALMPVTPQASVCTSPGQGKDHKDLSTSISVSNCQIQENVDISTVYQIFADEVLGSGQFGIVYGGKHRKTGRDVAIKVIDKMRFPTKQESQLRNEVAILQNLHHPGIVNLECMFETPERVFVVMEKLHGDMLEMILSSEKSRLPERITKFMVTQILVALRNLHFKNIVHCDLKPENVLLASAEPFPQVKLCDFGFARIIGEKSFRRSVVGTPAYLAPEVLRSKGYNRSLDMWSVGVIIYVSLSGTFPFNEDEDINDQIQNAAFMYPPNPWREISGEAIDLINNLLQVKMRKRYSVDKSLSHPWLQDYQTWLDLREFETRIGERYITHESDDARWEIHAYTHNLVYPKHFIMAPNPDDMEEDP
Chain of FGFR2 (human) (P21802 whole entry, looked up): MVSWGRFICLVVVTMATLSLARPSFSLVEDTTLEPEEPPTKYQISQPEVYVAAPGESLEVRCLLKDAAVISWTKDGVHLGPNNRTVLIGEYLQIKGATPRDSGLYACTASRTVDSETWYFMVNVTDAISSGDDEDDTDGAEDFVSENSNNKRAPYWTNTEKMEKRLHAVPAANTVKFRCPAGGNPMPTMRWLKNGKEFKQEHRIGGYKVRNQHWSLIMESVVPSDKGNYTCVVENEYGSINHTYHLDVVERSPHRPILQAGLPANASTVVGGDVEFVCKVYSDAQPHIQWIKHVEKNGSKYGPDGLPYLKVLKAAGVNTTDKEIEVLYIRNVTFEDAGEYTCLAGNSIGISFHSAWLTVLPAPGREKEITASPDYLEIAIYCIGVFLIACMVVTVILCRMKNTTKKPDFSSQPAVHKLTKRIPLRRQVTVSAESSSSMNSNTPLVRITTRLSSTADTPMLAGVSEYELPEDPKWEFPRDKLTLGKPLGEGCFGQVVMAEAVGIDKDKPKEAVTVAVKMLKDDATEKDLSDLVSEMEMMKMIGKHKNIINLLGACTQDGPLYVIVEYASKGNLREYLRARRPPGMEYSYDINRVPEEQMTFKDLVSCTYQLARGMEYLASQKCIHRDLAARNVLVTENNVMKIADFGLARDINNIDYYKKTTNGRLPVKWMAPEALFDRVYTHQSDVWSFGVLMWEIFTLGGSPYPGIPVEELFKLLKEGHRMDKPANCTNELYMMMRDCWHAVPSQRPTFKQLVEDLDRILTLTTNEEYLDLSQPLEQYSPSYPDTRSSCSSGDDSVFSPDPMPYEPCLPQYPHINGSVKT
Chain of AURKA (human) (O14965 whole entry, looked up): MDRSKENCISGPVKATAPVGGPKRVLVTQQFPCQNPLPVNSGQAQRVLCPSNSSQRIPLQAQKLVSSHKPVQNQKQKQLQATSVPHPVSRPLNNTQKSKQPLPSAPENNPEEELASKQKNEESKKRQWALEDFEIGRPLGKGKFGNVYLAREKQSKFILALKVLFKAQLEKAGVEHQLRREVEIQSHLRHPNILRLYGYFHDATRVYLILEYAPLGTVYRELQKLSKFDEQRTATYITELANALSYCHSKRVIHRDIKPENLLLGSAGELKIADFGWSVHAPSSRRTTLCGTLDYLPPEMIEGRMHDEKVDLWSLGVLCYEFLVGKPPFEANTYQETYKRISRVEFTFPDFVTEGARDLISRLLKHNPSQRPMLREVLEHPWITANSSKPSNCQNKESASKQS
Chain of DMPK (human) (Q09013 whole entry, looked up): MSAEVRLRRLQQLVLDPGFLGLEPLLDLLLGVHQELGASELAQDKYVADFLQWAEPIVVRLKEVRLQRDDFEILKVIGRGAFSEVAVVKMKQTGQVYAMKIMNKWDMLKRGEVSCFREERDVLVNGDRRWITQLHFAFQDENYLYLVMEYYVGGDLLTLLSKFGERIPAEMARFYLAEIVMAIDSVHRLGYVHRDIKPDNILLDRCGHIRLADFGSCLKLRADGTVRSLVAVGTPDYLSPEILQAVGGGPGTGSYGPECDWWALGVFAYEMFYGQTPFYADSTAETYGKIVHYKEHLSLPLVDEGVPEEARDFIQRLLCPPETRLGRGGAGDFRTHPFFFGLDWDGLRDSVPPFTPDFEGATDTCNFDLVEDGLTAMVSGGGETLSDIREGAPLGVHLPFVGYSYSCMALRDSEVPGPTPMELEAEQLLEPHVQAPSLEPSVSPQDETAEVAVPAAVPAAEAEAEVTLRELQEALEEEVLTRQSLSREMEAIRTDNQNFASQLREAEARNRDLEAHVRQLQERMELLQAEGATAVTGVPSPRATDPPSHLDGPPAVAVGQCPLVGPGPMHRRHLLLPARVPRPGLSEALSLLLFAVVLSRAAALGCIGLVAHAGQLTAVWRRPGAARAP
Chain of SRPK1 (human) (Q96SB4 whole entry, looked up): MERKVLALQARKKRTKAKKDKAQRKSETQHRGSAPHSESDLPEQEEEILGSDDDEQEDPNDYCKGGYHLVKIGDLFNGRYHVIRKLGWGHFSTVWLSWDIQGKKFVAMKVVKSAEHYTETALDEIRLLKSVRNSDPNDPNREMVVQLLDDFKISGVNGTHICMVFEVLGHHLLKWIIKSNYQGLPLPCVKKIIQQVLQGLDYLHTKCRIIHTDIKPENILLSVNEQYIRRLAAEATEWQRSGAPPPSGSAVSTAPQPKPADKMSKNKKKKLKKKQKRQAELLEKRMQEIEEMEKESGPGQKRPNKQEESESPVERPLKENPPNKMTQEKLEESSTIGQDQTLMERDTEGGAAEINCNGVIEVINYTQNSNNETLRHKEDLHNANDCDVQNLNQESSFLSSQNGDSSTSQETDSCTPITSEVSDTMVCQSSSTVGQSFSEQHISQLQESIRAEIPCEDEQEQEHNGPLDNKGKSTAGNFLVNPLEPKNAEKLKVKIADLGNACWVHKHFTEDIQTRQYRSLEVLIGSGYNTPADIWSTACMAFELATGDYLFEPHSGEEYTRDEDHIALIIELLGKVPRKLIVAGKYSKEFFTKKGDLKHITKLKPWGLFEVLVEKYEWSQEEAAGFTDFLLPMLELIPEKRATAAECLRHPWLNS
Chain of MST1R (human) (Q04912 whole entry, looked up): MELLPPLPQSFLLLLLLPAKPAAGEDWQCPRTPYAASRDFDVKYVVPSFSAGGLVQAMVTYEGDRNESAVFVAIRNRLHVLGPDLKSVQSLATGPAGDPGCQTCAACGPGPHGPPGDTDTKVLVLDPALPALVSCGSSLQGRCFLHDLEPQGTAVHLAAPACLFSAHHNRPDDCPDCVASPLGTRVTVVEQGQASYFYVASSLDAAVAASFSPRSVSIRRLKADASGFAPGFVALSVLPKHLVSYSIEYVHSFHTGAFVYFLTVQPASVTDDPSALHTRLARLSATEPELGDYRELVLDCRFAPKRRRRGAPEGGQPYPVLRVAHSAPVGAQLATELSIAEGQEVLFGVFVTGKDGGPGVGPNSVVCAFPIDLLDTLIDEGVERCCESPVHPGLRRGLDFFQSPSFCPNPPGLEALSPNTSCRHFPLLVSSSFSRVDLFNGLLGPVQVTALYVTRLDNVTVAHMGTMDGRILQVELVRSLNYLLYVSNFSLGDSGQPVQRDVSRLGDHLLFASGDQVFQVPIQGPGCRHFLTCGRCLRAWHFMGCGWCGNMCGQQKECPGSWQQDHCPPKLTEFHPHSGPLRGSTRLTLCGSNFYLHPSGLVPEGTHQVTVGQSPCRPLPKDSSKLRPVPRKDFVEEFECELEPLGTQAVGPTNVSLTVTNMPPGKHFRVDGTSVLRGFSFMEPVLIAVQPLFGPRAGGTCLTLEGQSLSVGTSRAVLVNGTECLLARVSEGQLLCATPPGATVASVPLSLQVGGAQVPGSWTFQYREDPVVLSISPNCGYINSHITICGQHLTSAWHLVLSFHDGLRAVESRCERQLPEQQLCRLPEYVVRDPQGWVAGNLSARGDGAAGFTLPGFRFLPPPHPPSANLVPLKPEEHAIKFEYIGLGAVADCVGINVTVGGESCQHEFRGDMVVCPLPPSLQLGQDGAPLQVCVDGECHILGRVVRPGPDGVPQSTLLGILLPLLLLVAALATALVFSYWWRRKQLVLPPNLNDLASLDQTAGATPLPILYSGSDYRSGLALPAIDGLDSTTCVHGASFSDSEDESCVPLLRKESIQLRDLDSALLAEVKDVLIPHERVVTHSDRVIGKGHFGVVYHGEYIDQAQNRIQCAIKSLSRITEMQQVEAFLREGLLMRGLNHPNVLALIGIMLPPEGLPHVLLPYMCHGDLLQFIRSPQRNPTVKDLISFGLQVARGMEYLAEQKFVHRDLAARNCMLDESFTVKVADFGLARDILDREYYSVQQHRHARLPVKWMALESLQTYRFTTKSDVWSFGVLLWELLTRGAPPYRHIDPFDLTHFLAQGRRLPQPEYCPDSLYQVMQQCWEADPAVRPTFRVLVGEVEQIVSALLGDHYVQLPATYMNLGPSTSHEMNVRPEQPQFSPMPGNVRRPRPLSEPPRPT

SMILES | kinase still bound, per cent of control (WEE1 (human)) [%] | kinase still bound, per cent of control (CDK18 (human)) [%] | kinase still bound, per cent of control [1] [%] | kinase still bound, per cent of control (MAP2K2 (human)) [%] | kinase still bound, per cent of control (FGFR2 (human)) [%] | kinase still bound, per cent of control (NLK (human)) [%] | kinase still bound, per cent of control (DMPK (human)) [%] | kinase still bound, per cent of control (MARK4 (human)) [%] | kinase still bound, per cent of control (ACVR1B (human)) [%] | kinase still bound, per cent of control (FRK (human)) [%] | kinase still bound, per cent of control (MAP3K3 (human)) [%] | kinase still bound, per cent of control (PAK7 (human)) [%] | kinase still bound, per cent of control (SRPK1 (human)) [%] | kinase still bound, per cent of control (PRKD3 (human)) [%] | kinase still bound, per cent of control (SRPK3 (human)) [%] | kinase still bound, per cent of control (STK36 (human)) [%] | kinase still bound, per cent of control (INSR (human)) [%] | kinase still bound, per cent of control (RPS6KA5 KD1 (human)) [%] | kinase still bound, per cent of control (MST1R (human)) [%] | kinase still bound, per cent of control (EPHA1 (human)) [%] | also measured
O=C(O)c1ccc(Nc2ncc3c(n2)-c2ccc(Cl)cc2C(c2c(F)cccc2F)=NC3)cc1 | 100 | 100 | 100 | 99 | 7.7 | 82 | 79 | 100 | 94 | 73 | 72 | 93 | 100 | 96 | 100 | 100 | 59 | 99 | 92 | 15 | kinase still bound, per cent of control (CAMK1D (human)): 98%; kinase still bound, per cent of control (CSNK1G3 (human)): 93%; kinase still bound, per cent of control (CSNK1G2 (human)): 66%; kinase still bound, per cent of control (NUAK2 (human)): 85%; kinase still bound, per cent of control (ROS1 (human)): 23%; kinase still bound, per cent of control (AKT1 (human)): 100%; kinase still bound, per cent of control (CDK7 (human)): 77%; kinase still bound, per cent of control (PAK6 (human)): 79%; kinase still bound, per cent of control (CDK11B (human)): 89%; kinase still bound, per cent of control (PRKAA2 (human)): 67%; kinase still bound, per cent of control (RIOK3 (human)): 100%; kinase still bound, per cent of control (PRKACA (human)): 47%; kinase still bound, per cent of control (MST4 (human)): 100%; kinase still bound, per cent of control (MAP4K5 (human)): 96%; kinase still bound, per cent of control (EPHB3 (human)): 29%; kinase still bound, per cent of control (AURKA (human)): 0.5%
CCOc1cc2ncc(C#N)c(Nc3ccc(OCc4ccccn4)c(Cl)c3)c2cc1NC(=O)/C=C/CN(C)C | 57 | 96 | 100 | 0.5 | 96 | 95 | 98 | 87 | 100 | 100 | 3.8 | 72 | 100 | 65 | 77 | 69 | 46 | 100 | 100 | 100 | kinase still bound, per cent of control [2]: 70%; kinase still bound, per cent of control (MAPK3 (human)): 100%; kinase still bound, per cent of control (MAP2K3 (human)): 100%; kinase still bound, per cent of control (NUAK2 (human)): 8.8%; kinase still bound, per cent of control (ROS1 (human)): 96%; kinase still bound, per cent of control (AKT1 (human)): 98%; kinase still bound, per cent of control (CDK7 (human)): 68%; kinase still bound, per cent of control (PAK6 (human)): 74%; kinase still bound, per cent of control (CDK11B (human)): 97%; kinase still bound, per cent of control (PRKAA2 (human)): 80%; kinase still bound, per cent of control (RIOK3 (human)): 97%; kinase still bound, per cent of control (PRKACA (human)): 95%; kinase still bound, per cent of control (MST4 (human)): 2%; kinase still bound, per cent of control (MAP4K5 (human)): 0.85%; kinase still bound, per cent of control (EPHB3 (human)): 100%; kinase still bound, per cent of control (AURKA (human)): 87%
